Tests used:
Format in all cases: biochemical
JAK1 = target: T1, JAK1 (Homo sapiens, UniProt P23458); experiment: JAK1 inhibition (Table 4); conditions: read-out: JAK1 Ki
T1 construct: made in house; host or cells: SF9 insect cells (baculovirus)

JAK2 = target: T2, JAK2 (Homo sapiens, UniProt O60674); experiment: JAK2 inhibition (Table 4); conditions: read-out: JAK2 Ki
T2 construct: made in house; host or cells: SF9 insect cells (baculovirus)

TYK2 = target: T3, TYK2 (Homo sapiens, UniProt P29597); experiment: TYK2 inhibition (Table 4)
T3 construct: made in house; host or cells: SF9 insect cells (baculovirus)
T3 sequence (P29597 873-1187): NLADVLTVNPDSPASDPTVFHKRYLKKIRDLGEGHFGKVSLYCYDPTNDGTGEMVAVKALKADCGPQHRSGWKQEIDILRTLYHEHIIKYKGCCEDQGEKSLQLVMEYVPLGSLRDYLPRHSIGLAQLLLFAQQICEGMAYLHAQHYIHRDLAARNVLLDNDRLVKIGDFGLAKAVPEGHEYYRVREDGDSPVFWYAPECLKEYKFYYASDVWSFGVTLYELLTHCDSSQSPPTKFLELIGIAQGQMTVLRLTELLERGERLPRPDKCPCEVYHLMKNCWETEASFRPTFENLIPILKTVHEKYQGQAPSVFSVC

JAK3 = target: T4, JAK3 (Homo sapiens, UniProt P52333); experiment: JAK3 inhibition (Table 4); conditions: read-out: JAK3 Ki
T4 construct: made in house; host or cells: SF9 insect cells (baculovirus)
T4 sequence (P52333 783-1124): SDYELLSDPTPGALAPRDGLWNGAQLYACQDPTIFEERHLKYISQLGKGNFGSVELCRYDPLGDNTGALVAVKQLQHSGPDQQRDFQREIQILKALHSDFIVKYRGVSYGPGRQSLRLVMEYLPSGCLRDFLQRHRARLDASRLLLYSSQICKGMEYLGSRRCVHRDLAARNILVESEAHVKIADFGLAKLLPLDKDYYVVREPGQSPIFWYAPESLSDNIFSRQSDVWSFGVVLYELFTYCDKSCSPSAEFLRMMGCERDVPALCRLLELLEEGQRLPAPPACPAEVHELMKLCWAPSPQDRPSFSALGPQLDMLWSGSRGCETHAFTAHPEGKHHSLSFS

T2 sequence (O60674 812-1132): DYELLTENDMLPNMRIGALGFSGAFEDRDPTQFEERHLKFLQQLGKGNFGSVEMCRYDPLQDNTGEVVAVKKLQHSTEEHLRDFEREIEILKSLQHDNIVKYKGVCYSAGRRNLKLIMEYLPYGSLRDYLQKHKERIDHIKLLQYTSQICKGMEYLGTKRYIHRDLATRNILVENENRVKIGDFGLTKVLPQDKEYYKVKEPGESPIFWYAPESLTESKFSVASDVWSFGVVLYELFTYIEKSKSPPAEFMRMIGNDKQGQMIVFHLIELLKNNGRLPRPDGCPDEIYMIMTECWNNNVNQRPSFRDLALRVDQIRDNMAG
T1 sequence (P23458 852-1154): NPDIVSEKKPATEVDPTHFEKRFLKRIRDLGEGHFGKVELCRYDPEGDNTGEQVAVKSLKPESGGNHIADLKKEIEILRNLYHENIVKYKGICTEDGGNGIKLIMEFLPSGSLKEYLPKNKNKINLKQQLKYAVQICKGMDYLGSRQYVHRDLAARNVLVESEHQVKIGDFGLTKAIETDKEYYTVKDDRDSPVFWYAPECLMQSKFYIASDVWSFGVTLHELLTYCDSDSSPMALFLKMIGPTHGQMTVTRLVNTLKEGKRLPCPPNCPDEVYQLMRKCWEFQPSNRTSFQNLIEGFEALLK

Row | SMILES | Ki (JAK1) [nM] | Ki (JAK2) [nM] | Ki (TYK2) [nM] | Ki (JAK3) [nM]
1 | CC1CN(CCC#N)CCC1n1cnc2cnc3[nH]ccc3c21 (racemic) [Example 324, 3-[3-Methyl-4-(6H-1,3,5,6-tetraaza-as-indacen-1-yl)-piperidin-1-yl]-propionitrile] | 0.63 | 0.6 | 3.76 | 5.2
2 | N#Cc1ccc(N[C@H]2CC[C@H](n3cnc4cnc5[nH]ccc5c43)CC2)nc1 [Example 176, Trans 6-[4-(6H-1,2,3,5,6-Tetraaza-as-indacen-1-yl)-cyclohexylamino]-nicotinonitrile] | 2.16 | 7.05 | 24.3 | 95.8
3 | CCOC(=O)NCCc1nc2cnc3[nH]ccc3c2n1C1CCN(CC)CC1(F)F (single isomer, unassigned) [Example 679, {2-[1-(1-Ethyl-3,3-difluoro-piperidin-4-yl)-1,6-dihydro-1,2,3,5,6-tetraaza-as-indacen-2-yl]-ethyl}-carbamic acid ethyl ester] | 7.45 | 55.5 | 413 | 27.7
4 | Cc1nc2cnc3[nH]ccc3c2n1C1CN2CCC1CC2 (stereo not drawn) [Example 928, 1-(1-Aza-bicyclo[2.2.2]oct-3-yl)-2-methyl-1,6-dihydro-1,3,5,6-tetraaza-as-indacene] | 125 | 206 | 887 | 449
5 | N#CCCN1CCC(n2c(CC(=O)N3CCOCC3)nc3cnc4[nH]ccc4c32)CC1 [Example 160, 3-{4-[2-(2-Morpholin-4-yl-2-oxo-ethyl)-6H-1,2,3,5,6-tetraaza-as-indacen-1-yl]-piperidin-1-yl}-propionitrile] | 8.43 | 70.6 | 100 | 10.7
6 | C[C@@H](O)c1nc2cnc3[nH]ccc3c2n1C1CCNCC1F (stereo partly drawn) [Example 877, (R)-1-[1-(3-Fluoro-piperidin-4-yl)-1,6-dihydro-1,3,5,6-tetraaza-as-indacen-2-yl]-ethanol] | 1.69 | 37.8 | 10.9 | 10.6

Other lines, results leading:

Row | Ki (JAK1) [nM] | Ki (JAK2) [nM] | Ki (TYK2) [nM] | Ki (JAK3) [nM] | SMILES
7 | 3.55 | 7.14 | 31 | 23.6 | CCc1nc2cnc3[nH]ccc3c2n1C1CCN(C(C)CC#N)CC1 (stereo not drawn) [Example 123, 3-[4-(2-Ethyl-6H-1,2,3,5,6-tetraaza-as-indacen-1-yl)-piperidin-1-yl]-butyronitrile]
8 | 66 | 177 | 376 | 162 | CN1CCC(NC(=O)Cc2nc3cnc4[nH]ccc4c3n2C2CCCOC2)CC1 (racemic) [Example 981, N-(1-Methyl-piperidin-4-yl)-2-[1-(tetrahydro-pyran-3-yl)-1,6-dihydro-1,3,5,6-tetraaza-as-indacen-2-yl]-acetamide]
9 | 1.73 | 6.44 | 69.9 | 10.8 | OCc1nc2cnc3[nH]ccc3c2n1C1CCN(Cc2ccccc2)CC1 [Example 22, [1-(1-Benzyl-piperidin-4-yl)-1,6-dihydro-1,2,3,5,6-tetraaza-as-indacen-2-yl]methanol]
10 | 0.75 | 1.16 | 23.6 | 9.48 | Fc1cccc(CN2CCC(n3cnc4cnc5[nH]ccc5c43)CC2)c1 [Example 67, 1-[1-(3-Fluoro-benzyl)-piperidin-4-yl]-1,6-dihydro-1,3,5,6-tetraaza-as-indacene]
11 | 267 | 2280 | 2010 | 2360 | CC(C)CC(=O)N1CCC[C@@H](n2c([C@@H](C)O)nc3cnc4[nH]ccc4c32)C1 [Example 793, 1-{(R)-3-[2-((R)-1-Hydroxy-ethyl)-6H-1,3,5,6-tetraaza-as-indacen-1-yl]-piperidin-1-yl}-3-methyl-butan-1-one]
12 | 7.45 | 23.1 | 677 | 46.8 | c1ccc(CN2CCC(n3c(C4CNC4)nc4cnc5[nH]ccc5c43)CC2)cc1 [Example 162, 2-Azetidin-3-yl-1-(1-benzyl-piperidin-4-yl)-1,6-dihydro-1,2,3,5,6-tetraaza-as-indacene]
